Results: PubChem BioAssay (NCI)
“And” between values parts separate entries of the source, which are not always exact repeats. Identical values can stand only once.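 Assay format: 96-well plates, 48-hour exposure. Abbreviation: GI50, concentration required for 50% inhibition of growth. TGI is the concentration that stops growth completely.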

How the values were obtained:
Assay in all cases: growth of human tumour cells (NCI), 48 h
[1] = system: COLO 205 colon
[2] = system: UO-31 renal
[3] = system: CCRF-CEM leukemia
[4] = system: BT-549 breast
[5] = system: SNB-19 CNS
[6] = system: SK-MEL-28 melanoma
[7] = system: SK-MEL-5 melanoma
[8] = system: MCF7 breast
[9] = system: NCI-H226 lung
[10] = system: NCI-H23 lung

| SMILES | GI50 [1] [µM] | TGI [1] [µM] | GI50 [2] | TGI [2] | GI50 [3] | TGI [3] | GI50 [4] | TGI [4] | GI50 [5] [µM] | TGI [5] | GI50 [6] | TGI [6] | GI50 [7] | TGI [7] | GI50 [8] | TGI [8] | GI50 [9] [µM] | TGI [9] | GI50 [10] [µM] | TGI [10] [µM] |
| --- | --- | --- | --- | --- | --- | --- | --- | --- | --- | --- | --- | --- | --- | --- | --- | --- | --- | --- | --- | --- |
| Cn1cccc1-c1cc(-c2ccccc2)[nH]c(=O)c1C#N | > 100 | > 100 | > 100 µM | > 100 µM | > 100 µM | > 100 µM | > 100 µM | > 100 µM | > 100 | > 100 µM | > 100 µM | > 100 µM | > 100 µM | > 100 µM | > 100 µM | > 100 µM | > 100 | > 100 µM | > 100 | > 100 |
| CN(Cc1ccc(C(F)(F)F)cc1)CC(O)C(=O)Nc1ccc(Cl)cc1 (stereo not given) | 1.86 | 3.46 | 1.29 µM | 2.65 µM | – | – | 1.46 µM | 2.88 µM | 1.78 | 3.28 µM | 1.62 µM | 3.16 µM | 1.67 µM | 3.11 µM | 1.04 µM | 2.36 µM | 1.83 | 3.7 µM | 1.32 | 2.69 |
| NC(=O)[C@@H](CC1CC1)[C@@H](CCC(F)(F)F)C(=O)N[C@H]1N=C(c2ccccc2)c2cccc(F)c2NC1=O | > 100 | > 100 | 75.3 µM | > 100 µM | – | – | > 100 µM | > 100 µM | > 100 | > 100 µM | 19.7 µM | 52.4 µM | 17.7 µM | 35.1 µM | 28.3 µM | > 100 µM | > 100 | > 100 µM | > 100 | > 100 |
| O=c1c2cc(-c3ccccc3)sc2ncn1Cc1ccc(Cl)c(Cl)c1 | > 100 | > 100 | 31.8 µM | > 100 µM | – | – | 21 µM | 60.4 µM | 26.8 | > 100 µM | 45.5 µM | > 100 µM | 34.2 µM | > 100 µM | 12.1 µM | > 100 µM | 13.1 | 87.2 µM | 17.3 | 44.2 |
| O=[N+]([O-])c1cccc(-c2nc(-c3ccccc3)c(-c3ccccc3)[nH]2)c1 | – | > 100 | – | > 100 µM | – | > 100 µM | – | – | – | > 100 µM | – | > 100 µM | – | > 100 µM | – | > 100 µM | – | > 100 µM | – | > 100 |
| NS(=O)(=O)c1ccc(N2N=C3c4ccccc4CC3C2c2cccs2)cc1 (stereo not given) | 58.9 | > 100 | 39.4 µM | > 100 µM | 31.8 µM | > 100 µM | 19.3 µM | 51.7 µM | 34.4 | > 100 µM | 75.6 µM | > 100 µM | 18 µM | 43.5 µM | > 100 µM | > 100 µM | – | – | 20.3 | 48.7 |
| CNNC(=N\S(=O)(=O)c1cc(C)c(Cl)cc1SCc1ccccc1)/N=C/c1ccc([N+](=O)[O-])s1 | 0.776 | – | > 100 µM | > 100 µM | > 100 µM | > 100 µM | > 100 µM | > 100 µM | > 100 | > 100 µM | > 100 µM | > 100 µM | 1.48 µM | > 37.3 µM | 97.9 µM | > 100 µM | – | – | > 100 | > 100 |
| Cc1nc2ccc(Br)cc2c(=O)n1-c1ccc(NC2OCC(O)C(O)C2O)cc1 (stereo not given) | > 100 | > 100 | 35.8 µM and > 100 µM | > 100 µM | 3.8 µM and 34.9 µM | 38 µM and > 100 µM | 24.2 µM and 99.5 µM | 53.9 µM and > 100 µM | – | > 100 µM | 26.2 µM and > 100 µM | 66.9 µM and > 100 µM | – | > 100 µM | 20.8 µM and > 100 µM | 51.9 µM and > 100 µM | – | > 100 µM | – | – |
| Cc1cc(NC(=O)C2C3C=CC(O3)C2C(=O)O)no1 (stereo not given) | – | 31.5 | – | > 100 µM | – | 38.5 µM | – | – | – | > 100 µM | – | > 100 µM | – | > 100 µM | – | – | – | > 100 µM | – | > 100 |
| CC(C)(O)/C=C/C(=O)[C@](C)(O)[C@H]1[C@H](O)C[C@@]2(C)[C@@H]3CC=C4[C@@H](C[C@H](O)C(=O)C4(C)C)[C@]3(C)C(=O)C[C@]12C | 0.0919 | – | 0.206 µM | 0.396 µM and 0.519 µM | 0.0462 µM | 0.62 µM and 3.04 µM | – | – | 0.0476 | 0.349 µM and 0.951 µM | 0.028 µM | 0.0828 µM and 0.432 µM | 0.0565 µM and 0.11 µM | 0.682 µM and 2.44 µM | – | – | 0.174 | 0.642 µM and 0.913 µM | 0.462 | 15.5 |
| CC(=O)NC(CCCCN)C(=O)NCc1ccccc1 (stereo not given) | – | > 100 | – | > 100 µM | – | > 100 µM | – | – | – | > 100 µM | – | > 100 µM | – | > 100 µM | – | – | – | > 100 µM | – | > 100 |
| Cc1c(C(=O)/C=C/C=C/c2ccccc2)[n+](=O)c2ccccc2n1[O-] | – | > 100 | – | > 100 µM | – | > 100 µM | – | – | – | > 100 µM | – | 54.6 µM | – | 44.4 µM | – | – | – | > 100 µM | – | 51.4 |
| CC1(c2cc3c(cc2Br)OCO3)SCCCS1 | – | > 100 | – | 85.1 µM | – | > 100 µM | – | – | – | > 100 µM | – | > 100 µM | – | 51 µM | – | – | – | > 100 µM | – | 45.5 |
| Cc1cccc2c1c1ccc3c(c1n2C)C(=O)C=CC3=O | – | 6.26 | – | 9.83 µM | – | 3.25 µM | – | – | – | 32.3 µM | – | 24.4 µM | – | 29.6 µM | – | – | – | 32.8 µM | – | 29.3 |
| Cc1cc(C)nc(/C(=N\NC(N)=O)C(=O)Nc2nc3ccc(C)cc3s2)c1 | – | > 73.5 | – | > 100 µM | – | > 77.8 µM | – | – | – | > 100 µM | – | > 100 µM | – | > 100 µM | – | – | – | > 100 µM | – | > 100 |
| CCc1cccc(C)c1NC(=O)CCc1nnc2s/c(=C\c3cccc4ccccc34)c(=O)n12 | – | > 100 | – | > 100 µM | – | > 100 µM | – | – | – | > 100 µM | – | > 100 µM | – | > 100 µM | – | – | – | > 100 µM | – | > 100 |
| COc1ccc2c(c1OC)-c1c(c3ccc([N+](=O)[O-])cc3c(=O)n1CCCBr)C2=O | > 100 | > 100 | 35.3 µM | > 100 µM | 16.9 µM | 80.9 µM | 50.8 µM | > 100 µM | 69.9 | > 100 µM | – | – | 18.1 µM | > 100 µM | 3.66 µM | 20.6 µM | 26.8 | 84.3 µM | – | – |
